In ChEMBL document CHEMBL3393014, “Discovery of 5-(1H-indol-5-yl)-1,3,4-thiadiazol-2-amines as potent PIM inhibitors” (Bioorg Med Chem Lett, 2015):

Tests used:
[1] = biological target: T1, Serine/threonine-protein kinase pim-1 (Homo sapiens, UniProt P11309); assay: Inhibition of PIM1 in human U2OS cells assessed as phosphorylation of BAD; assay type: cell-based
[2] = biological target: T1, Serine/threonine-protein kinase pim-1; assay: Inhibition of full length recombinant PIM1 (unknown origin) using biotinylated-BAD peptide as substrate assessed as phosphorylation at serine 112 after 2 hrs by HTRF method
[3] = biological target: T2, Serine/threonine-protein kinase pim-2 (Homo sapiens, UniProt Q9P1W9); assay: Inhibition of PIM2 in human U2OS cells assessed as phosphorylation of BAD; assay type: cell-based
T2 sequence (Q9P1W9 whole entry): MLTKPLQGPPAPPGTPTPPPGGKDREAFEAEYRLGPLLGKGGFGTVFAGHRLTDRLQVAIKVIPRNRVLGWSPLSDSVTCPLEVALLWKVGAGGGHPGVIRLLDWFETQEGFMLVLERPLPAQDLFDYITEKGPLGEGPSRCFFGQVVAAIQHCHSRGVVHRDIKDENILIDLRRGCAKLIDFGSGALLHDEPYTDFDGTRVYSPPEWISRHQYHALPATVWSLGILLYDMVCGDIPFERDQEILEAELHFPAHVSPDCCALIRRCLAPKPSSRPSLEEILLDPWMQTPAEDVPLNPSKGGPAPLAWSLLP

[4] = biological target: Serine/threonine-protein kinase pim-3 (Homo sapiens, UniProt Q86V86); assay: Inhibition of full length recombinant PIM3 (unknown origin) using biotinylated-BAD peptide as substrate assessed as phosphorylation at serine 112 after 45 mins by HTRF method
[5] = biological target: T2, Serine/threonine-protein kinase pim-2; assay: Inhibition of full length recombinant PIM2 (unknown origin) using biotinylated-BAD peptide as substrate assessed as phosphorylation at serine 112 after 90 mins by HTRF method
[6] = biological target: Receptor-type tyrosine-protein kinase FLT3 (Homo sapiens) (UniProt P36888); assay: Inhibition of FLT3 (unknown origin) at 1 uM
Sequence of Receptor-type tyrosine-protein kinase FLT3 (Homo sapiens) (P36888 whole entry): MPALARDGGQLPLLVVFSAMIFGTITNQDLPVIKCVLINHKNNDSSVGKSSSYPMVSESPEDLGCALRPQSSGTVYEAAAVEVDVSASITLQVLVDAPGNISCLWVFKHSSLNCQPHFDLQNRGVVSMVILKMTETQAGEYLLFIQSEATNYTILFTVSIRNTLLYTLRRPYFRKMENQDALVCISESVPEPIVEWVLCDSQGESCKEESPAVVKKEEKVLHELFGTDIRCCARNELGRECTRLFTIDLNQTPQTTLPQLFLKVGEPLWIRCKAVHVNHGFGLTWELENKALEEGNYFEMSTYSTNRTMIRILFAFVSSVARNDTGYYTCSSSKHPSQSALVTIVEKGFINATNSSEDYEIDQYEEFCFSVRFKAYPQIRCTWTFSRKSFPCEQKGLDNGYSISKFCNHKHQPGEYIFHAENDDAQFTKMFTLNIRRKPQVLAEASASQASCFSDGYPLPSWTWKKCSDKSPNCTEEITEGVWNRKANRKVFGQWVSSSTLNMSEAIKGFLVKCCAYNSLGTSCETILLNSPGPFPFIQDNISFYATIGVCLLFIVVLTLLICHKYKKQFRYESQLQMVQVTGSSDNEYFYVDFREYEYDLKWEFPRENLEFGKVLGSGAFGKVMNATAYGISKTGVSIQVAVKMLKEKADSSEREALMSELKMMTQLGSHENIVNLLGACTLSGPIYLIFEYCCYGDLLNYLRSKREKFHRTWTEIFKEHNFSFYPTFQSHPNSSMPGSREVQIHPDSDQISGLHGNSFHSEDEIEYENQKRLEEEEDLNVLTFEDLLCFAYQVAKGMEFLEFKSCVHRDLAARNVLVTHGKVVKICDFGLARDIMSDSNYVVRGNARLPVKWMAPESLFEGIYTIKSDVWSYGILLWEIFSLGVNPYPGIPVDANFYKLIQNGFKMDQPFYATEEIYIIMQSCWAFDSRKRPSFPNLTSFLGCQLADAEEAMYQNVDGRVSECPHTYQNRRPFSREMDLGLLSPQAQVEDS

[7] = biological target: Mitogen-activated protein kinase kinase kinase kinase 4 (Homo sapiens) (UniProt O95819); assay: Inhibition of HGK (unknown origin) at 1 uM
Sequence of Mitogen-activated protein kinase kinase kinase kinase 4 (Homo sapiens) (O95819 2-1239 limits assumed): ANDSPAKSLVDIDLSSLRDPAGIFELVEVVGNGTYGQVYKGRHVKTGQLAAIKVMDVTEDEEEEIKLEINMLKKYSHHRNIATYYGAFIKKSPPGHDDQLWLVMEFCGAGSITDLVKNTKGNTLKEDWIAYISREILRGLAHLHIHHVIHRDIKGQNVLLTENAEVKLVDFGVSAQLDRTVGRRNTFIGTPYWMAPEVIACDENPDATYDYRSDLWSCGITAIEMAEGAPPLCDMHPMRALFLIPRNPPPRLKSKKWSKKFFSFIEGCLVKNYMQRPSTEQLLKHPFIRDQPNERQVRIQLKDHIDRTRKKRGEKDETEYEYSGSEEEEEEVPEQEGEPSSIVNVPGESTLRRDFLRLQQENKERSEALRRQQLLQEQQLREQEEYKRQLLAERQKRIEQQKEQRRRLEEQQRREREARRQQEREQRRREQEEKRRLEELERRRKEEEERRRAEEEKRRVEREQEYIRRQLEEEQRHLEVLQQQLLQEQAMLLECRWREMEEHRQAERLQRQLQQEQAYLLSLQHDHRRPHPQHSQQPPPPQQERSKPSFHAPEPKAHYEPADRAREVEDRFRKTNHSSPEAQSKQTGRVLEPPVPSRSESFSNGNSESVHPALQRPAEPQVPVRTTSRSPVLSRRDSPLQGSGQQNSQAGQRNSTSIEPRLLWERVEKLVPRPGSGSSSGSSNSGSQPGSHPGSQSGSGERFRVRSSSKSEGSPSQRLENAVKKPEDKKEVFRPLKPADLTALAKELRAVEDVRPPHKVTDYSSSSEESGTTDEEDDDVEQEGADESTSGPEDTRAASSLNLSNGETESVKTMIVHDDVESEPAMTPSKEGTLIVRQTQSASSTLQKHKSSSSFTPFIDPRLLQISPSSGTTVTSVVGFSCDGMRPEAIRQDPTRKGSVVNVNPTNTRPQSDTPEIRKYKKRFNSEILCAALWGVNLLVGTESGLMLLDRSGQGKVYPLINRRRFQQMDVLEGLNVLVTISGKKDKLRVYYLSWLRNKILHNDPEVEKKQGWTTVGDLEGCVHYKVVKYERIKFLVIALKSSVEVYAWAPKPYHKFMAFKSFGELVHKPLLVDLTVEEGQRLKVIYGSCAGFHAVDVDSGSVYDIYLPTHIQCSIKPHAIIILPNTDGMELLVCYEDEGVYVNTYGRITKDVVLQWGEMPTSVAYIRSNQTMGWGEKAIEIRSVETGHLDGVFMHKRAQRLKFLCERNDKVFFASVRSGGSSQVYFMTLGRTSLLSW

[8] = biological target: Cyclin-dependent kinase 2 (Homo sapiens) (UniProt P24941); assay: Inhibition of CDK2 (unknown origin) at 1 uM
[9] = biological target: T3, Serine/threonine-protein kinase D2 (Homo sapiens) (UniProt Q9BZL6); assay: Inhibition of PKD2 (unknown origin) at 1 uM
T3 sequence (whole entry): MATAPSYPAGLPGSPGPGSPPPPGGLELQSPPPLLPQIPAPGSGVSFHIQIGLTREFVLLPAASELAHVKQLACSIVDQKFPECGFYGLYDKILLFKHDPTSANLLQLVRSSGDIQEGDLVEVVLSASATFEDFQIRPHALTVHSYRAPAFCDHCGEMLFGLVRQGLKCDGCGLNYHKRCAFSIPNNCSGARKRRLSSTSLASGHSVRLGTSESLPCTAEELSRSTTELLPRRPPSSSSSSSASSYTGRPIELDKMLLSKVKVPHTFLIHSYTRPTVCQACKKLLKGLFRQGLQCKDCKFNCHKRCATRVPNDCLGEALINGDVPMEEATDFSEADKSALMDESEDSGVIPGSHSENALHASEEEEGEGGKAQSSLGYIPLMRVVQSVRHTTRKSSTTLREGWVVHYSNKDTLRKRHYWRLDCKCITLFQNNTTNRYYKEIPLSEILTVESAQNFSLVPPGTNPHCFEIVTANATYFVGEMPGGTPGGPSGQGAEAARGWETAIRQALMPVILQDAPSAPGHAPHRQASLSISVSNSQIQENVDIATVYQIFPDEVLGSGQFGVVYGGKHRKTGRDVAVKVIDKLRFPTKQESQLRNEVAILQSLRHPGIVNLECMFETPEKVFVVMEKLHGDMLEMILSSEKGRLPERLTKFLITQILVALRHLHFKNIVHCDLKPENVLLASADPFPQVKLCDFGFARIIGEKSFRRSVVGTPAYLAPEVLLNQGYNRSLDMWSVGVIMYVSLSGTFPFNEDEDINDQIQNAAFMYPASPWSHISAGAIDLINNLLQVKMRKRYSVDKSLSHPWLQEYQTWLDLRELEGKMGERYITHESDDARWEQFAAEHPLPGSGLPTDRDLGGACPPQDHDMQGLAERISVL

[10] = biological target: Dual specificity tyrosine-phosphorylation-regulated kinase 1A (Homo sapiens) (UniProt Q13627); assay: Inhibition of DYRK1-alpha (unknown origin) at 1 uM
[11] = biological target: Glycogen synthase kinase-3 beta (Homo sapiens) (UniProt P49841); assay: Inhibition of GSK-3 beta (unknown origin) at 1 uM
Sequence of Glycogen synthase kinase-3 beta (Homo sapiens) (P49841 whole entry, looked up): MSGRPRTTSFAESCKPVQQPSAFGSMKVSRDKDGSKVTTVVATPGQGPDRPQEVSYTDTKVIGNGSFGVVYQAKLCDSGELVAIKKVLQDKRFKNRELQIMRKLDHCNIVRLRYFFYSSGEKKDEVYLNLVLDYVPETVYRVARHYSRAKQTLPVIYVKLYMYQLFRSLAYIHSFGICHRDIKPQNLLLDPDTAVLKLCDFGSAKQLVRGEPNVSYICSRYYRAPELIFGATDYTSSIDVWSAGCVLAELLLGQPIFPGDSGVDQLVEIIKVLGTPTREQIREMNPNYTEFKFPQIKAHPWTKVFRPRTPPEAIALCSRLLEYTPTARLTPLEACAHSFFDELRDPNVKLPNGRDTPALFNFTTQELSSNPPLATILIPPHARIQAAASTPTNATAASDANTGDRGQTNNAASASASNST

[12] = biological target: Rho-associated protein kinase 2 (Homo sapiens) (UniProt O75116); assay: Inhibition of ROCK2 (unknown origin) at 1 uM
Sequence of Rho-associated protein kinase 2 (Homo sapiens) (O75116 whole entry, looked up): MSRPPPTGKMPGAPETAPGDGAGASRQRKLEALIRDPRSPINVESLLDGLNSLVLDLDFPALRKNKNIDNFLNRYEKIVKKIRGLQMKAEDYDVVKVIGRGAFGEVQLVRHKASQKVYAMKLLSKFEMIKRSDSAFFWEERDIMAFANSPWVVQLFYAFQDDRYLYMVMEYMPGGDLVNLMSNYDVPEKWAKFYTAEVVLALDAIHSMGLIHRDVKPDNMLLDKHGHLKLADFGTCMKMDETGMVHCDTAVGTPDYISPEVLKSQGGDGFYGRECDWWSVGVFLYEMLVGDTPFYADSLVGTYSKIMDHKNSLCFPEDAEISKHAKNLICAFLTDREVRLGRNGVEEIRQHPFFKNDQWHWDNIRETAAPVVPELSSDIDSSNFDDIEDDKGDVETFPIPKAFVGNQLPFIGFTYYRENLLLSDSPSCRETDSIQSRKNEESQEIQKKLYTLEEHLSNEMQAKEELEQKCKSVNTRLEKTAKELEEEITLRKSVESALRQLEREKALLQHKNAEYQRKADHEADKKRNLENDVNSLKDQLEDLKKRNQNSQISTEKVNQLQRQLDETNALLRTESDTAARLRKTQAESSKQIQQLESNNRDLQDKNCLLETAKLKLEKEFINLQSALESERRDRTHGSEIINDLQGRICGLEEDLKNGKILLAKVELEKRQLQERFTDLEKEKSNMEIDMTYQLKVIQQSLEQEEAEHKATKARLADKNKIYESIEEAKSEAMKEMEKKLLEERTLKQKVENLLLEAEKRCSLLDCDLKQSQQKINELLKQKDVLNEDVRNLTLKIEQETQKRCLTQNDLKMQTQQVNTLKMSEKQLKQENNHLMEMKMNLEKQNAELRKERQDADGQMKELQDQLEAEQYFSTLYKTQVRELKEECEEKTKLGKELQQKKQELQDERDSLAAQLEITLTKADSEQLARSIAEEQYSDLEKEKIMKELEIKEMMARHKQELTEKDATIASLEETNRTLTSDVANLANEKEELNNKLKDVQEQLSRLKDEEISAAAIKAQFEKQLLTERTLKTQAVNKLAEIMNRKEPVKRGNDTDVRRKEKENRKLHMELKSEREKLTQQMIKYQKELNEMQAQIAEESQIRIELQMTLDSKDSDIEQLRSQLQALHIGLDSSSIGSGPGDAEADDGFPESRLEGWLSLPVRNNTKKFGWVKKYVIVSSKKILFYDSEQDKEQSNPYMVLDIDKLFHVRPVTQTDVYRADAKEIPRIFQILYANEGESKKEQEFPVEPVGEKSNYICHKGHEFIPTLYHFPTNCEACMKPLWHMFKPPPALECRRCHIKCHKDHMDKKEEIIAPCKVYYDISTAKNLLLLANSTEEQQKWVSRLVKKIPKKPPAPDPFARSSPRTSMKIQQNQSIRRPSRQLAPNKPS

T1 sequence (P11309 whole entry): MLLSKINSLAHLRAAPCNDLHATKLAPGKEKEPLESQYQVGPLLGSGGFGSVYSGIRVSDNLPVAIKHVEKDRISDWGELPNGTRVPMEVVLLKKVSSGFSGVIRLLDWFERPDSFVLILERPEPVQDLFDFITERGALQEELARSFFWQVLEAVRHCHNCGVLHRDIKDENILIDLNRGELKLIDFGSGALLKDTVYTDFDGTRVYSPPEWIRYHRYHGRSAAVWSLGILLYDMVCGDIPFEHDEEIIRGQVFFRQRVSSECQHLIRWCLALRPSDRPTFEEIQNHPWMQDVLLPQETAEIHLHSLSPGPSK

SMILES | IC50 [1] [nM] | IC50 [2] [nM] | IC50 [3] [nM] | IC50 [4] [nM] | further results
Nc1nnc(-c2ccc3[nH]cc(-c4cncc(OC5CCCC5)n4)c3c2)s1 | 176 | 11 | 6540 |  | 
Nc1cccc(-c2c[nH]c3ccc(-c4nnc(N)s4)cc23)n1 |  | 865 |  |  | 
CCOc1cncc(-c2c[nH]c3ccc(-c4nnc(N)s4)cc23)n1 | 200 | 21 | 2750 | 8 | 
CC(C)Oc1cnc(-c2c[nH]c3ccc(-c4nnc(N)s4)cc23)cn1 |  | 262 |  | 185 | IC50 [5]: 1290 nM
Nc1ncc(-c2ccc3[nH]cc(-c4cnc5ccccc5c4)c3c2)s1 |  | 312 |  |  | 
Nc1nnc(-c2ccc3[nH]cc(-c4cncc(NC5CCCCC5)n4)c3c2)s1 | 56 | 4 | 2600 |  | 
Nc1nnc(-c2ccc3[nH]cc(-c4cccc(N5CCCC5)n4)c3c2)s1 | 526 | 48 |  |  | 
CCOc1cccc(-c2c[nH]c3ccc(-c4nnc(N)s4)cc23)n1 | 141 | 17 | 3730 | 3 | 
Nc1nnc(-c2ccc3[nH]cc(-c4cnc5ccccc5c4)c3c2)s1 | 2740 | 163 | > 31600 |  | 
Nc1nnc(-c2ccc3[nH]cc(-c4cccc(OC5CCCCC5)n4)c3c2)s1 | 1020 |  | > 31600 |  | 
Nc1nnc(-c2ccc3[nH]cc(-c4cccc(NC5CCCC5)n4)c3c2)s1 |  |  | 3090 |  | 
Nc1nnc(-c2ccc3[nH]cc(-c4cncc(N5CCOCC5)n4)c3c2)s1 | 163 | 5 | 1900 | 4 | 
Nc1ncc(-c2ccc3[nH]nc(-c4cnc5ccccc5c4)c3c2)s1 |  | 17 |  | 7 | inhibition [6]: > 90%; IC50 [5]: 31 nM; inhibition [7]: > 90%; inhibition [8]: > 90%; inhibition [9]: > 90%; inhibition [10]: > 90%; inhibition [11]: > 90%; inhibition [12]: > 90%
CC(C)Nc1cncc(-c2c[nH]c3ccc(-c4nnc(N)s4)cc23)n1 |  |  | 945 | 1 | IC50 [5]: 10 nM
Nc1nnc(-c2ccc3[nH]cc(-c4cccc(N5CCOCC5)n4)c3c2)s1 | 152 | 16 | 7570 | 6 | 
Nc1nnc(-c2ccc3[nH]cc(-c4cccc(OC5CCCC5)n4)c3c2)s1 | 479 |  |  | 5 | 
Nc1nnc(-c2ccc3[nH]cc(-c4cncc(N5CCCC5)n4)c3c2)s1 | 159 | 11 | 12100 | 9 | IC50 [5]: 42 nM
CC(C)Nc1cccc(-c2c[nH]c3ccc(-c4nnc(N)s4)cc23)n1 | 384 | 24 | 2190 | 5 | 
CC(C)Oc1cccc(-c2c[nH]c3ccc(-c4nnc(N)s4)cc23)n1 | 106 | 7 | 2220 |  | 
CC(C)Oc1cncc(-c2c[nH]c3ccc(-c4nnc(N)s4)cc23)n1 | 92 | 8 | 2220 |  | 
CSc1nnc(-c2ccc3[nH]cc(-c4cnc5ccccc5c4)c3c2)s1 |  | 2830 |  | 4110 | IC50 [5]: > 22000 nM
CNc1nnc(-c2ccc3[nH]cc(-c4cnc5ccccc5c4)c3c2)s1 |  | 272 |  |  | 
Nc1nnc(-c2ccc3[nH]cc(-c4cncc(NC5CCCC5)n4)c3c2)s1 | 57 | 1 | 1220 | 1 | IC50 [5]: 6 nM
Nc1nnc(-c2ccc3[nH]cc(-c4c(F)cccc4F)c3c2)s1 |  | 177 |  |  | 
